# Experimental data: patent publication US20240264161A1, “BIOMARKERS AND USES THEREOF” (MetaCurUm Biotech AB, priority 2021, published 2024)
# B1: TNF receptor associated factor 6 (TRAF6), endogenous in PC-3U cells (protein)
# chain: MSLLNCENSCGSSQSESDCCVAMASSCSAVTKDDSVGGTASTGNLSSSFMEEIQGYDVEFDPPLESKYECPICLMALREAVQTPCGHRFCKACIIKSIRDAGHKCPVDNEILLENQLFPDNFAKREILSLMVKCPNEGCLHKMELRHLEDHQAHCEFALMDCPQCQRPFQKFHINIHILKDCPRRQVSCDNCAASMAFEDKEIHDQNCPLANVICEYCNTILIREQMPNHYDLDCPTAPIPCTFSTFGCHEKMQRNHLARHLQENTQSHMRMLAQAVHSLSVIPDSGYISEVRNFQETIHQLEGRLVRQDHQIRELTAKMETQSMYVSELKRTIRTLEDKVAEIEAQQCNGIYIWKIGNFGMHLKCQEEEKPVVIHSPGFYTGKPGYKLCMRLHLQLPTAQRCANYISLFVHTMQGEYDSHLPWPFQGTIRLTILDQSEAPVRQNHEEIMDAKPELLAFQRPTIPRNPKGFGYVTFMHLEALRQRTFIKDDTLLVRCEVSTRFDMGSLRREGFQPRSTDAGV
# B2: His-AURKB (protein)
# chain: MAQKENSYPWPYGRQTAPSGLSTLPQRVLRKEPVTPSALVLMSRSNVQPTAAPGQKVMENSSGTPDILTRHFTIDDFEIGRPLGKGKFGNVYLAREKKSHFIVALKVLFKSQIEKEGVEHQLRREIEIQAHLHHPNILRLYNYFYDRRRIYLILEYAPRGELYKELQKSCTFDEQRTATIMEELADALMYCHGKKVIHRDIKPENLLLGLKGELKIADFGWSVHAPSLRRKTMCGTLDYLPPEMIEGRMHNEKVDLWCIGVLCYELLVGNPPFESASHNETYRRIVKVDLKFPASVPMGAQDLISKLLRHNPSERLPLAQVSAHPWVRANSRRVLPPSALQSVA
# Experiments:
# PC-3U cells = assay: Confocal imaging of abscission (GFP-VPS4A and β-tubulin); type: cell-based, human
# Protocol: (A, B and D) Immunofluorescence experiments showing co-localization of AURKB (green) and TβRI (V22, red) during mitosis in human prostate cancer (PC-3U) (A) and human neuroblastoma (KELLY) (B) cells, and of TβRI (V22, green) and β-tubulin (red) throughout the PC-3U mitosis (D). Scale bar, 20 μm. (C) Localization of survivin (green) and TβRI (V22, red) in PC-3U cells throughout the mitosis (E) Decreased co-localization of TβRI and AURKB after treatment of PC-3U cells on ice for 30 min. Scale bar, 20 μm. (F) Representative confocal images showing the localization of green fluorescent protein (GFP)-VPS4A (green) and β-tubulin (red) with or without knockdown of TβRI by siRNA, or treatment with the TβRI kinase inhibitor SB505124. Scale bar, 5 μm. (G) Multinucleated cells were counted after knockdown of TGFBR1. Data presented as mean±SEM, N=3 [Student's t-test, *P<0.05]. Scale bar, 20 μm. […] The gene sets are ordered by normalized enrichment score. Color indicates the adjusted p-value. (I) GSEA plots of the hallmark mitotic spindle (left) and G2/M checkpoint (right) gene sets show their strong association with TGFBR1-correlated genes. […] (J) PC-3U cells were treated or not with SB505124 and TGFβ for 30 minutes, after which cell lysates were analyzed by immunoblotting. […]
# TβRI = assay: Immunoblotting of AURKB phosphorylation after TβRI kinase inhibition; type: cell-based, human; settings: PC-3U cells treated or not with SB505124 and TGFβ for 30 minutes
# Protocol: (A, B and D) Immunofluorescence experiments showing co-localization of AURKB (green) and TβRI (V22, red) during mitosis in human prostate cancer (PC-3U) (A) and human neuroblastoma (KELLY) (B) cells, and of TβRI (V22, green) and β-tubulin (red) throughout the PC-3U mitosis (D). Scale bar, 20 μm. (C) Localization of survivin (green) and TβRI (V22, red) in PC-3U cells throughout the mitosis (E) Decreased co-localization of TβRI and AURKB after treatment of PC-3U cells on ice for 30 min. Scale bar, 20 μm. (F) Representative confocal images showing the localization of green fluorescent protein (GFP)-VPS4A (green) and β-tubulin (red) with or without knockdown of TβRI by siRNA, or treatment with the TβRI kinase inhibitor SB505124. Scale bar, 5 μm. (G) Multinucleated cells were counted after knockdown of TGFBR1. Data presented as mean±SEM, N=3 [Student's t-test, *P<0.05]. Scale bar, 20 μm. […] (J) PC-3U cells were treated or not with SB505124 and TGFβ for 30 minutes, after which cell lysates were analyzed by immunoblotting. […]
# Cells were washed twice with ice-cold phosphate-buffered saline (PBS) and lysed in ice-cold lysis buffer [150 mM NaCl, 50 mM Tris, pH 8.0, 0.5% (v/v) deoxycholate, 1% (v/v) NP40, 10% (v/v) glycerol and protease inhibitors]. After centrifugation, the supernatants were collected, and protein concentrations determined using the BCA Protein Assay Kit (ThermoFisher Scientific). […]
# [1] = target: T1, Flag-tagged wild-type AURKB
# T1 chain: B2 chain
# [2] = target: T2, glutathione-S-transferase (GST)-TβRI, P36897
# T2 chain: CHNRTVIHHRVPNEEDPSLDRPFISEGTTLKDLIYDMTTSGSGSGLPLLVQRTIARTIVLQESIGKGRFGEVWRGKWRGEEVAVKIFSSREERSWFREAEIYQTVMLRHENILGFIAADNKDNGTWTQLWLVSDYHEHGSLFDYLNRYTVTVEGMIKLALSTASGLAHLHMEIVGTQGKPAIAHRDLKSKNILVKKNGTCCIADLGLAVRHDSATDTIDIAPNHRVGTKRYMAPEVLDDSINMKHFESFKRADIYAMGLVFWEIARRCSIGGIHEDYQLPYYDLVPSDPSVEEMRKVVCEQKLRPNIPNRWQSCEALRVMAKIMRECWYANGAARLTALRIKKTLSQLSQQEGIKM
molecule,measurement,setting,value
Cc1cccc(-c2[nH]c(C(C)(C)C)nc2-c2ccc3c(c2)OCO3)n1 [SB505124],effect on abscission,PC-3U cells,did not affect the abscission
same,AURKB phosphorylation,TβRI,suppressed AURKB phosphorylation
B1,"polyubiquitination of AURKB (Flag IP, HA-ubiquitin immunoblot, with or without TRAF6 siRNA)",[1],Knockdown of TRAF6 by siRNA in PC-3U cells suppressed polyubiquitination of AURKB
B2,in vitro kinase assay (phosphorylation of GST-TβRI),[2],His-AURKB phosphorylated glutathione-S-transferase (GST)-TβRI in an in vitro kinase assay
